Tests used:
male ddY mice = test: Mouse marble-burying behavior test; type: in vivo; settings: Compound (I) 0.1 mg/kg p.o., 30 min before test, n=10
Text: Marble-burying behavior test is a behavioral evaluation test utilizing the behavior of a mouse to bury marbles on the bedding. Since this characteristic behavior of burying harmless glass marbles in the bedding reflects the anxiety state of the animal, and is apparently similar to a compulsive act of obsessive-compulsive disorder patient, which is repeated with the recognition of irrationality, it is particularly considered a model of obsessive-compulsive disorder^1),2),3),4).
As the animal, male ddY mice (6- to 7-week-old) were used. In the test, a plastic cage (26×32×17 cm) was filled with chips to about 5 cm deep in a soundproof room, and 25 marbles (diameter 15 mm, weight about 6 g) were placed thereon at equal distances. Each mouse was orally administered with Compound (I) simultaneously with an antianxiety drug or an antidepressant or a vehicle thereof, and 30 min later, each mouse was placed in a cage containing the marbles. 30 min later, the animal was taken out from the cage, and the number of marbles covered with chips by ⅔ or more was visually counted.
Compound (I) (0.1 mg/kg) and various antidepressants (fluoxetine (10 mg/kg), paroxetine (10 mg/kg), sertraline (10 mg/kg), fluvoxamine (15 mg/kg)) were suspended in 5% gum arable-distilled water, and diazepam (antianxiety drug, 1 mg/kg) was diluted with physiological saline and used. All drugs and vehicles thereof were orally administered 30 min before the start of the test.

ddY male mice = test: Forced swimming test in mice (antidepressant action); type: in vivo
Protocol: When an antidepressant is administered in advance, the immobility time is shortened. The shortened immobility time is used as an index of an antidepressant action to be evaluated. This test method is widely used as an experimental animal model reflecting the clinical antidepressant effect.
In this test, the action of a combined use of 7-[4-(4-benzo[b]thiophen-4-yl-piperazin-1-yl)butoxy]-1H-quinolin-2-one (Compound (I)) and 9 kinds of antidepressants (serotonin reuptake inhibitors, or serotonin and norepinephrine reuptake inhibitors) on the immobility time was compared.
As the animal, ddY male mice (5 to 6-week-old) were used. Various antidepressants and Compound (I) or each vehicle were administered to the mice before the start of the test, the mice were placed in a cylindrical water tank, and immobility time during 2 min to 4 min after the start of swimming was measured by a behavior analysis apparatus with an infrared sensor (SCANET; Melquest Co., Ltd.).
Compound (I) was dissolved in 1% lactic acid-physiological saline, and various antidepressants were suspended or dissolved in 5% gum arabic-distilled water and used. Various antidepressants (fluoxetine (75 mg/kg), escitalopram (60 mg/kg), paroxetine (10 mg/kg), sertraline (15 mg/kg), venlafaxine (15 mg/kg), milnacipran (30 mg/kg), fluvoxamine (75 mg/kg)) were orally administered 60 min before the start of the test, duloxetine (20 mg/kg) and desvenlafaxine (20 mg/kg) were orally administered 30 min before the start of the test, and Compound (I) (0.001 or 0.003 mg/kg) was intraperitoneally administered 15 min before the start of the test.

[1] = Compound (I) 0.001 mg/kg i.p. 15 min before test, venlafaxine 15 mg/kg p.o. 60 min before, n=10
[2] = Compound (I) 0.003 mg/kg i.p. 15 min before test, desvenlafaxin 20 mg/kg p.o. 30 min before, n=8
[3] = Compound (I) 0.003 mg/kg i.p. 15 min before test, duloxetine 20 mg/kg p.o. 30 min before, n=7
[4] = Compound (I) 0.003 mg/kg i.p. 15 min before test, escitalopram 60 mg/kg p.o. 60 min before, n=10
[5] = Compound (I) 0.003 mg/kg i.p. 15 min before test, fluoxetine 75 mg/kg p.o. 60 min before, n=10
[6] = Compound (I) 0.003 mg/kg i.p. 15 min before test, fluvoxamine 75 mg/kg p.o. 60 min before, n=10
[7] = Compound (I) 0.003 mg/kg i.p. 15 min before test, milnacipran 30 mg/kg p.o. 60 min before, n=10
[8] = Compound (I) 0.003 mg/kg i.p. 15 min before test, paroxetine 10 mg/kg p.o. 60 min before, n=10
[9] = Compound (I) 0.003 mg/kg i.p. 15 min before test, sertraline 15 mg/kg p.o. 60 min before, n=7

Compound: O=c1ccc2ccc(OCCCCN3CCN(c4cccc5sccc45)CC3)cc2[nH]1 [Compound (I), 7-[4-(4-benzo[b]thiophen-4-yl-piperazin-1-yl)butoxy]-1H-quinolin-2-one]
- number of marbles buried (average ± standard error) (male ddY mice; diazepam 1 mg/kg p.o.): 14.4 ± 2.0
- number of marbles buried relative to control (%) (male ddY mice; diazepam 1 mg/kg p.o.): 96%
- number of marbles buried (average ± standard error) (male ddY mice; fluoxetine 10 mg/kg p.o.): 14.4 ± 2.0
- number of marbles buried relative to control (%) (male ddY mice; fluoxetine 10 mg/kg p.o.): 82%
- number of marbles buried (average ± standard error) (male ddY mice; fluvoxamine 15 mg/kg p.o.): 14.0 ± 1.6
- number of marbles buried relative to control (%) (male ddY mice; fluvoxamine 15 mg/kg p.o.): 86%
- number of marbles buried (average ± standard error) (male ddY mice; paroxetine 10 mg/kg p.o.): 11.3 ± 1.5
- number of marbles buried relative to control (%) (male ddY mice; paroxetine 10 mg/kg p.o.): 90%
- number of marbles buried (average ± standard error) (male ddY mice; sertraline 10 mg/kg p.o.): 12.2 ± 2.2
- number of marbles buried relative to control (%) (male ddY mice; sertraline 10 mg/kg p.o.): 91%
- immobility time relative to control (%) (ddY male mice; [1]): 99%
- immobility time relative to control (%) (ddY male mice; [2]): 96%
- immobility time relative to control (%) (ddY male mice; [3]): 98%
- immobility time relative to control (%) (ddY male mice; [4]): 96%
- immobility time relative to control (%) (ddY male mice; [5]): 100%
- immobility time relative to control (%) (ddY male mice; [6]): 100%
- immobility time relative to control (%) (ddY male mice; [7]): 101%
- immobility time relative to control (%) (ddY male mice; [8]): 98%
- immobility time relative to control (%) (ddY male mice; [9]): 87%

Compound: CN(C)CC(c1ccc(O)cc1)C1(O)CCCCC1 (centres unmarked) [desvenlafaxin, desvenlafaxine]
- immobility time relative to control (%) (ddY male mice; [2]): 95%

Compound: CN1C(=O)CN=C(c2ccccc2)c2cc(Cl)ccc21 [diazepam]
- number of marbles buried (average ± standard error) (male ddY mice; diazepam 1 mg/kg p.o.): 12.8 ± 2.0
- number of marbles buried relative to control (%) (male ddY mice; diazepam 1 mg/kg p.o.): 85%

Compound: CNCC[C@H](Oc1cccc2ccccc12)c1cccs1 [duloxetine]
- immobility time relative to control (%) (ddY male mice; [3]): 95%

Compound: CN(C)CCC[C@@]1(c2ccc(F)cc2)OCc2cc(C#N)ccc21 [escitalopram]
- immobility time relative to control (%) (ddY male mice; [4]): 95%

Compound: CNCCC(Oc1ccc(C(F)(F)F)cc1)c1ccccc1 (centres unmarked) [fluoxetine]
- number of marbles buried (average ± standard error) (male ddY mice; fluoxetine 10 mg/kg p.o.): 17.3 ± 1.5
- number of marbles buried relative to control (%) (male ddY mice; fluoxetine 10 mg/kg p.o.): 98%
- immobility time relative to control (%) (ddY male mice; [5]): 92%

Compound: COCCCC/C(=N\OCCN)c1ccc(C(F)(F)F)cc1 [fluvoxamine]
- number of marbles buried (average ± standard error) (male ddY mice; fluvoxamine 15 mg/kg p.o.): 13.5 ± 2.1
- number of marbles buried relative to control (%) (male ddY mice; fluvoxamine 15 mg/kg p.o.): 83%
- immobility time relative to control (%) (ddY male mice; [6]): 95%

Compound: CCN(CC)C(=O)C1(c2ccccc2)CC1CN (centres unmarked) [milnacipran]
- immobility time relative to control (%) (ddY male mice; [7]): 97%

Compound: Fc1ccc([C@@H]2CCNC[C@H]2COc2ccc3c(c2)OCO3)cc1 [paroxetine]
- number of marbles buried (average ± standard error) (male ddY mice; paroxetine 10 mg/kg p.o.): 8.5 ± 2.0
- number of marbles buried relative to control (%) (male ddY mice; paroxetine 10 mg/kg p.o.): 60%
- immobility time relative to control (%) (ddY male mice; [8]): 98%

Compound: CN[C@H]1CC[C@@H](c2ccc(Cl)c(Cl)c2)c2ccccc21 [sertraline]
- number of marbles buried (average ± standard error) (male ddY mice; sertraline 10 mg/kg p.o.): 7.5 ± 0.7
- number of marbles buried relative to control (%) (male ddY mice; sertraline 10 mg/kg p.o.): 56%
- immobility time relative to control (%) (ddY male mice; [9]): 91%

Compound: COc1ccc(C(CN(C)C)C2(O)CCCCC2)cc1 (centres unmarked) [venlafaxine]
- immobility time relative to control (%) (ddY male mice; [1]): 96%

— US20180042923A1, “COMBINATIONS COMPRISING BREXPIPRAZOLE OR A SALT THEREOF AND A SECOND DRUG FOR USE IN THE TREATMENT OF A CNS DISORDER” (priority 2011, published 2018)
